From US9096624B2 (OSI Pharmaceuticals, LLC, priority 2009, dated 2015)
Where a name gives a salt, the structure may show the parent alone.

Molecular target: FAK (Homo sapiens, UniProt Q05397)
Test: biochemical

Sequence of FAK (Q05397 whole entry): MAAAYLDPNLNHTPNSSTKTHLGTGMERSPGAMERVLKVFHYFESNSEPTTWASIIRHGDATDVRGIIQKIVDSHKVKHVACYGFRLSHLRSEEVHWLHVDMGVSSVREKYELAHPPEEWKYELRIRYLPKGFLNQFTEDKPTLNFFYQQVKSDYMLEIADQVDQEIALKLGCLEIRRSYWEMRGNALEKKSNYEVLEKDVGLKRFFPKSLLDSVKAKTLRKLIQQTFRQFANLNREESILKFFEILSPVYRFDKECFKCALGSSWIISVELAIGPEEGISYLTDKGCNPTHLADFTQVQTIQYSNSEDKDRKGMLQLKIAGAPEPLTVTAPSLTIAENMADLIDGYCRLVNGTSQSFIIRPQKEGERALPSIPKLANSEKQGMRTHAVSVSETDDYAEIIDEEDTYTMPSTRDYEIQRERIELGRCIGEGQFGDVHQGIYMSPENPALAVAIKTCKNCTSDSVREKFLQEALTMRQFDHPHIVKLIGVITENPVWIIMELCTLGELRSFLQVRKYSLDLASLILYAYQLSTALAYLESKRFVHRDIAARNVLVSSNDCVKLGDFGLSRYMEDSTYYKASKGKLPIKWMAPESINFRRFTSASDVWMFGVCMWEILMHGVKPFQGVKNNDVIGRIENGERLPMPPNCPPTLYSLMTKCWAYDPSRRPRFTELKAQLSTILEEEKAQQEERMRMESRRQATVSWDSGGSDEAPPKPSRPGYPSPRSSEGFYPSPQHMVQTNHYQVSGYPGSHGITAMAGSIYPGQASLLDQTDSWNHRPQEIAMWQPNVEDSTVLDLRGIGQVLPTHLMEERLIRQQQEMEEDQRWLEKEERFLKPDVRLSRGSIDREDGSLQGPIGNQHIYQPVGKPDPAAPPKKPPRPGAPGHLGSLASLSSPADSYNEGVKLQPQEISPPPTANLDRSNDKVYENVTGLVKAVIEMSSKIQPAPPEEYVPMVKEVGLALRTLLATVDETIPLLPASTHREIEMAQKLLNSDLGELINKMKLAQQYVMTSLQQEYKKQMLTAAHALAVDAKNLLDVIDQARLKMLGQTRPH

Q: `CCOP(=O)(O)C1CCC(c2ccc(Nc3nc(Nc4ccccc4OC)ncc3C(F)(F)F)c3c2CN(C)C3=O)CC1` (mixture of isomers) [Example 255, Ethyl hydrogen {4-[7-({2-[(2-methoxyphenyl)amino]-5-(trifluoromethyl)pyrimidin-4-yl}amino)-2-methyl-1-oxo-2,3-dihydro-1H-isoindol-4-yl]cyclohexyl}phosphonate trifluoroacetate] was tested. Which IC50 did it give?
A: < 1000 nM

Q: For `CCOP(=O)(Cc1ccc(Nc2ncc(C(F)(F)F)c(Nc3ccc([C@H]4CC[C@@H](C(=O)O)CC4)c4c3C(=O)N(C)C4)n2)c(OC)c1)OCC` [Example 89, Cis-4-(7-{[2-({4-[(diethoxyphosphoryl)methyl]-2-methoxyphenyl}amino)-5-(trifluoromethyl)pyrimidin-4-yl]amino}-2-methyl-1-oxo-2,3-dihydro-1H-isoindol-4-yl)cyclohexanecarboxylic acid], which IC50 is on record?
A: < 1000 nM

Q: With `CCOP(=O)(Cc1ccc(Nc2ncc(C(F)(F)F)c(Nc3ccc([C@H]4CC[C@H](O)CC4)c4c3C(=O)N(C)C4)n2)cc1)OCC` [Example 91, Diethyl (4-{[4-{[7-(trans-4-hydroxycyclohexyl)-2-methyl-3-oxo-2,3-dihydro-1H-isoindol-4-yl]amino}-5-(trifluoromethyl)pyrimidin-2-yl]amino}benzyl)phosphonate] as the compound, how does the IC50 read?
A: < 1000 nM

Q: With `CCOP(=O)(Cc1ccc(Nc2ncc(C(F)(F)F)c(Nc3ccc([C@H]4CC[C@H](O)CC4)c4c3C(=O)N(C)C4)n2)c(OC)c1)OCC` [Example 93, Diethyl (4-{[4-{[7-(trans-4-hydroxycyclohexyl)-2-methyl-3-oxo-2,3-dihydro-1H-isoindol-4-yl]amino}-5-(trifluoromethyl)pyrimidin-2-yl]amino}-3-methoxybenzyl) phosphonate hydrochloride] as the compound, how does the IC50 read?
A: < 1000 nM

Q: With `CCOP(=O)(Cc1ccc(Nc2ncc(C(F)(F)F)c(Nc3ccc([C@H]4CC[C@@H](N5CCN(C)CC5)CC4)c4c3C(=O)N(C)C4)n2)c(OC)c1)OCC` [Example 95, Diethyl (3-methoxy-4-{[4-({2-methyl-7-[cis-4-(4-methylpiperazin-1-yl)cyclohexyl]-3-oxo-2,3-dihydro-1H-isoindol-4-yl}amino)-5-(trifluoromethyl)pyrimidin-2-yl]amino}benzyl)phosphonate] as the compound, how does the IC50 read?
A: < 1000 nM

Q: For `CCOP(=O)(Cc1ccc(Nc2ncc(C(F)(F)F)c(Nc3ccc(-c4cnn(CCOC)c4)c4c3C(=O)N(C)C4)n2)cc1)OCC` [Example 97, Diethyl (4-{[4-({7-[1-(2-methoxyethyl)-1H-pyrazol-4-yl]-2-methyl-3-oxo-2,3-dihydro-1H-isoindol-4-yl}amino)-5-(trifluoromethyl)pyrimidin-2-yl]amino}benzyl)phosphonate], which IC50 is on record?
A: < 1000 nM

Q: For `CCOP(=O)(Cc1ccc(Nc2ncc(C(F)(F)F)c(Nc3ccc(Br)cc3C(=O)NC)n2)cc1)OCC` [Example 106, Diethyl (4-{[4-{[4-bromo-2-(methylcarbamoyl)phenyl]amino}-5-(trifluoromethyl)pyrimidin-2-yl]amino}benzyl)phosphonate], which IC50 is on record?
A: < 1000 nM

Q: For `CCOP(=O)(Cc1ccc(Nc2ncc(C(F)(F)F)c(Nc3ccccc3C(=O)NC)n2)c(Br)c1)OCC` [Example 108, Diethyl (3-bromo-4-{[4-{[2-(methylcarbamoyl)phenyl]amino}-5-(trifluoromethyl)pyrimidin-2-yl]amino}benzyl) phosphonate], which IC50 is on record?
A: < 1000 nM

Q: How did the IC50 turn out when `CCOP(=O)(Cc1ccc(Nc2ncc(C(F)(F)F)c(Nc3ccccc3C(=O)N(C)C)n2)cc1)OCC` [Example 111, Diethyl (4-{[4-{[2-(dimethylcarbamoyl)phenyl]amino}-5-(trifluoromethyl)pyrimidin-2-yl]amino}benzyl)phosphonate] was run?
A: < 1000 nM

Q: `CCOP(=O)(Cc1ccc(Nc2ncc(C(F)(F)F)c(Nc3ccccc3C(=O)N(C)C)n2)c(OC)c1)OCC` [Example 112, Diethyl (4-{[4-{[2-(dimethylcarbamoyl)phenyl]amino}-5-(trifluoromethyl)pyrimidin-2-yl]amino}-3-methoxybenzyl)phosphonate] was tested. Which IC50 did it give?
A: < 1000 nM

Q: `CCOP(=O)(Cc1ccc(Nc2ncc(C(F)(F)F)c(Nc3ccc(C(=O)OC)c4c3C(=O)N(C)C4)n2)cc1)OCC` [Example 118, Methyl 7-{[2-({4-[(diethoxyphosphoryl)methyl]phenyl}amino)-5-(trifluoromethyl)pyrimidin-4-yl]amino}-2-methyl-1-oxo-2,3-dihydro-1H-isoindole-4-carboxylate] was tested. Which IC50 did it give?
A: < 1000 nM

Q: For `CCOP(=O)(O)Cc1ccc(Nc2ncc(C(F)(F)F)c(Nc3cccc4c3C(=O)N(C)C4)n2)c(OC)c1` [Example 120, Ethyl hydrogen [3-methoxy-4-({4-[(2-methyl-3-oxo-2,3-dihydro-1H-isoindol-4-yl)amino]-5-(trifluoromethyl)pyrimidin-2-yl}amino)benzyl]phosphonate], which IC50 is on record?
A: < 1000 nM

Q: Which IC50 does the source give for `CCOP(=O)(Cc1ccc(Nc2ncc(C(F)(F)F)c(Nc3ccc(N4CCN5CCOCC5C4)c4c3C(=O)N(C)C4)n2)cc1)OCC` (stereo not drawn) [Example 121, Diethyl (4-{[4-{[7-(hexahydropyrazino[2,1-c][1,4]oxazin-8(1H)-yl)-2-methyl-3-oxo-2,3-dihydro-1H-isoindol-4-yl]amino}-5-(trifluoromethyl)pyrimidin-2-yl]amino}benzyl)phosphonate] here?
A: < 1000 nM

Q: How did the IC50 turn out when `CCOP(=O)(Cc1ccc(Nc2ncc(C(F)(F)F)c(Nc3ccc(N4CCN5CCOCC5C4)c4c3C(=O)N(C)C4)n2)c(OC)c1)OCC` (stereo not drawn) [Example 122, Diethyl (4-{[4-{[7-(hexahydropyrazino[2,1-c][1,4]oxazin-8(1H)-yl)-2-methyl-3-oxo-2,3-dihydro-1H-isoindol-4-yl]amino}-5-(trifluoromethyl)pyrimidin-2-yl]amino}-3-methoxybenzyl)phosphonate] was run?
A: < 1000 nM

Q: With `CCOP(=O)(Cc1ccc(Nc2ncc(C(F)(F)F)c(Nc3ccc(Br)c4ccn(C)c(=O)c34)n2)cc1)OCC` [Example 123, Diethyl [4-({4-[(5-bromo-2-methyl-1-oxo-1,2-dihydroisoquinolin-8-yl)amino]-5-(trifluoromethyl)pyrimidin-2-yl}amino)benzyl]phosphonate] as the compound, how does the IC50 read?
A: < 1000 nM

Q: For `CCCn1cc(-c2ccc(Nc3nc(Nc4ccc(CP(=O)(OCC)OCC)cc4)ncc3C(F)(F)F)c(C(=O)NC)c2)cn1` [Example 126, Diethyl (4-{[4-{[2-(methylcarbamoyl)-4-(1-propyl-1H-pyrazol-4-yl)phenyl]amino}-5-(trifluoromethyl)pyrimidin-2-yl]amino}benzyl)phosphonate], which IC50 is on record?
A: < 1000 nM

Q: `CCOP(=O)(Cc1ccc(Nc2ncc(C(F)(F)F)c(Nc3ccc(-c4cnn(CC(C)(C)O)c4)cc3C(=O)NC)n2)cc1)OCC` [Example 127] was tested. Which IC50 did it give?
A: < 1000 nM

Q: For `CCOP(=O)(Cc1cc(OC)c(Nc2ncc(C(F)(F)F)c(Nc3ccccc3C(=O)NC)n2)cc1F)OCC` [Example 130, Diethyl (2-fluoro-5-methoxy-4-{[4-{[2-(methylcarbamoyl)phenyl]amino}-5-(trifluoromethyl)pyrimidin-2-yl]amino}benzyl)phosphonate], which IC50 is on record?
A: < 1000 nM

Q: With `CCOP(=O)(OCC)C(O)c1ccc(Nc2ncc(C(F)(F)F)c(Nc3ccccc3C(=O)NC)n2)cc1` (stereo not drawn) [Example 133, Diethyl [hydroxy(4-{[4-{[2-(methylcarbamoyl)phenyl]amino}-5-(trifluoromethyl)pyrimidin-2-yl]amino}phenyl)methyl]phosphonate trifluoroacetate] as the compound, how does the IC50 read?
A: < 1000 nM

Q: Which IC50 does the source give for `CCOP(=O)(Cc1ccc(Nc2ncc(C(F)(F)F)c(Nc3ccc(-c4cnn(CC(C)C)c4)cc3C(=O)NC)n2)cc1)OCC` [Example 134, Diethyl (4-{[4-({2-(methylcarbamoyl)-4-[1-(2-methylpropyl)-1H-pyrazol-4-yl]phenyl}amino)-5-(trifluoromethyl)pyrimidin-2-yl]amino}benzyl)phosphonate] here?
A: < 1000 nM

Q: `CCOP(=O)(Cc1ccc(Nc2ncc(C(F)(F)F)c(Nc3ccc(-c4cnn(C[C@H](O)CO)c4)cc3C(=O)NC)n2)cc1)OCC` [Example 135, Diethyl (4-{[4-{[4-{1-[(2S)-2,3-dihydroxypropyl]-1H-pyrazol-4-yl}-2-(methylcarbamoyl)phenyl]amino}-5-(trifluoromethyl)pyrimidin-2-yl]amino}benzyl)phosphonate] was tested. Which IC50 did it give?
A: < 1000 nM

Q: How did the IC50 turn out when `CCOP(=O)(Cc1ccc(Nc2ncc(C(F)(F)F)c(Nc3ccc(-c4cnn(C5CC(O)C5)c4)cc3C(=O)NC)n2)cc1)OCC` (stereo not drawn) [Example 136, Diethyl (4-{[4-({4-[1-(3-hydroxycyclobutyl)-1H-pyrazol-4-yl]-2-(methylcarbamoyl)phenyl}amino)-5-(trifluoromethyl)pyrimidin-2-yl]amino}benzyl)phosphonate] was run?
A: < 1000 nM

Q: How did the IC50 turn out when `CCOP(=O)(Cc1ccc(Nc2ncc(C(F)(F)F)c(Nc3ccc(-c4cnn(CCO)c4)cc3C(=O)NC)n2)cc1)OCC` [Example 145, Diethyl (4-{[4-({4-[1-(2-hydroxyethyl)-1H-pyrazol-4-yl]-2-(methylcarbamoyl)phenyl}amino)-5-(trifluoromethyl)pyrimidin-2-yl]amino}benzyl)phosphonate] was run?
A: < 1000 nM

Q: Which IC50 does the source give for `CCOP(=O)(Cc1cc(F)c(Nc2ncc(C(F)(F)F)c(Nc3ccccc3C(=O)NC)n2)c(OC)c1)OCC` [Example 146, Diethyl (3-fluoro-5-methoxy-4-{[4-{[2-(methylcarbamoyl)phenyl]amino}-5-(trifluoromethyl)pyrimidin-2-yl]amino}benzyl)phosphonate] here?
A: < 1000 nM

Q: Which IC50 does the source give for `CCOP(=O)(Cc1ccc(Nc2ncc(C(F)(F)F)c(Nc3ccc(C#N)cc3C(=O)NC)n2)cc1)OCC` [Example 150, Diethyl (4-{[4-{[4-cyano-2-(methylcarbamoyl)phenyl]amino}-5-(trifluoromethyl)pyrimidin-2-yl]amino}benzyl)phosphonate] here?
A: < 1000 nM

Q: For `CCNC(=O)c1ccccc1Nc1nc(Nc2ccc(CP(=O)(OCC)OCC)cc2)ncc1C(F)(F)F` [Example 152, Diethyl (4-{[4-{[2-(ethylcarbamoyl)phenyl]amino}-5-(trifluoromethyl)pyrimidin-2-yl]amino}benzyl)phosphonate], which IC50 is on record?
A: < 1000 nM

Q: `CCNC(=O)c1ccccc1Nc1nc(Nc2ccc(CP(=O)(OCC)OCC)cc2OC)ncc1C(F)(F)F` [Example 153, Diethyl (4-{[4-{[2-(ethylcarbamoyl)phenyl]amino}-5-(trifluoromethyl)pyrimidin-2-yl]amino}-3-methoxybenzyl)phosphonate] was tested. Which IC50 did it give?
A: < 1000 nM
